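Cultured in 96-well plates, cells were exposed to test compound for 48 hours across five concentrations. Here, GI50 denotes the concentration required for 50% inhibition of growth. TGI: concentration producing complete growth inhibition.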
Key:
Test in all cases: NCI anticancer screen, dose series, 48 h
[1] = test system: SNB-19 CNS
[2] = test system: PC-3 prostate
[3] = test system: SN12C renal
[4] = test system: 786-0 renal
[5] = test system: SK-OV-3 ovarian
[6] = test system: LOX IMVI melanoma
[7] = test system: DU-145 prostate
[8] = test system: HCT-116 colon
[9] = test system: KM12 colon
[10] = test system: HOP-92 NSCLC
[11] = test system: MDA-MB-468 breast
[12] = test system: ACHN renal
[13] = test system: T-47D breast
[14] = test system: OVCAR-3 ovarian
[15] = test system: HL-60(TB) leukemia
[16] = test system: UACC-62 melanoma
[17] = test system: NCI-H522 lung
[18] = test system: SF-268 CNS
[19] = test system: U251 CNS
[20] = test system: SF-295 CNS
[21] = test system: MOLT-4 leukemia
[22] = test system: RPMI-8226 leukemia
[23] = test system: M14 melanoma
[24] = test system: SR leukemia
[25] = test system: BT-549 breast
[26] = test system: NCI-H226 lung
[27] = test system: OVCAR-4 ovarian
[28] = test system: TK-10 renal
[29] = test system: CAKI-1 renal
[30] = test system: HCT-15 colon
[31] = test system: OVCAR-5 ovarian
[32] = test system: HCC-2998 colon
[33] = test system: MALME-3M melanoma
[34] = test system: UACC-257 melanoma
[35] = test system: IGROV1 ovarian
[36] = test system: A498 renal
[37] = test system: SK-MEL-5 melanoma
[38] = test system: K-562 leukemia
[39] = test system: HT29 colon
[40] = test system: A549 NSCLC
[41] = test system: EKVX NSCLC
[42] = test system: CCRF-CEM leukemia
[43] = test system: NCI-H23 lung
[44] = test system: HS 578T breast
[45] = test system: MDA-MB-435
[46] = test system: SF-539 CNS
[47] = test system: SW-620 colon
[48] = test system: OVCAR-8 ovarian
[49] = test system: RXF 393 renal
[50] = test system: COLO 205 colon
[51] = test system: MCF7 breast
[52] = test system: SK-MEL-28 melanoma
[53] = test system: NCI/ADR-RES ovarian
[54] = test system: NCI-H460 lung
[55] = test system: HOP-62 NSCLC

SMILES: C[C@H]1[C@@H](CC(=O)N[C@@H](Cc2coc3ccccc23)B(O)O)O[C@@H]2OC3(C)CC[C@H]4[C@H](C)CC[C@@H]1[C@@]24O3
- GI50 [1]: 6.28 µM
- TGI [1]: > 100 µM
- GI50 [2]: 5.47 µM
- TGI [2]: 40.1 µM
- GI50 [3]: 4.07 µM
- TGI [3]: 15.9 µM
- GI50 [4]: 4.24 µM
- TGI [4]: 19.2 µM
- GI50 [5]: 5.37 µM
- TGI [5]: 19.2 µM
- GI50 [6]: 1.83 µM
- TGI [6]: 4.34 µM
- GI50 [7]: 8.58 µM
- TGI [7]: 51.6 µM
- GI50 [8]: 2.19 µM
- TGI [8]: 5.56 µM
- GI50 [9]: 3.42 µM
- TGI [9]: 11.6 µM
- GI50 [10]: 3.88 µM
- TGI [10]: 15.4 µM
- GI50 [11]: 1.93 µM
- TGI [11]: 4.49 µM
- GI50 [12]: 3.08 µM
- TGI [12]: > 100 µM
- GI50 [13]: 3.3 µM
- TGI [13]: 16.5 µM
- GI50 [14]: 3.07 µM
- TGI [14]: 11.1 µM
- GI50 [15]: 2.25 µM
- TGI [15]: 6.84 µM
- GI50 [16]: 1.89 µM
- TGI [16]: 4.26 µM
- GI50 [17]: 1.82 µM
- TGI [17]: 4.26 µM
- GI50 [18]: 4.67 µM
- TGI [18]: > 100 µM
- GI50 [19]: 3.78 µM
- TGI [19]: 15.4 µM
- GI50 [20]: 1.92 µM
- TGI [20]: 6.27 µM
- GI50 [21]: 1.48 µM
- TGI [21]: 6.61 µM
- GI50 [22]: 1.23 µM
- TGI [22]: 5.65 µM
- GI50 [23]: 2.1 µM
- TGI [23]: 5.96 µM
- GI50 [24]: 1.48 µM
- TGI [24]: 5.16 µM
- GI50 [25]: 1.64 µM
- TGI [25]: 4.2 µM
- GI50 [26]: 1.3 µM
- TGI [26]: 2.84 µM
- GI50 [27]: 6.09 µM
- TGI [27]: > 100 µM
- GI50 [28]: 2.71 µM
- TGI [28]: 8.86 µM
- GI50 [29]: 4.2 µM
- TGI [29]: 23.7 µM
- GI50 [30]: 2.22 µM
- TGI [30]: 5.88 µM
- GI50 [31]: 2.92 µM
- TGI [31]: 13.7 µM
- GI50 [32]: 2.22 µM
- TGI [32]: 4.45 µM
- GI50 [33]: 1.88 µM
- TGI [33]: 6.77 µM
- GI50 [34]: 1.85 µM
- TGI [34]: 4.19 µM
- GI50 [35]: 4.03 µM
- TGI [35]: 18.9 µM
- GI50 [36]: 4.45 µM
- TGI [36]: 16.6 µM
- GI50 [37]: 2.29 µM
- TGI [37]: 5.48 µM
- GI50 [38]: 3.25 µM
- TGI [38]: 22.9 µM
- GI50 [39]: 2.27 µM
- TGI [39]: 5.36 µM
- GI50 [40]: 3.66 µM
- TGI [40]: 18.7 µM
- GI50 [41]: 5.01 µM
- TGI [41]: 23.6 µM
- GI50 [42]: 2.45 µM
- TGI [42]: 12.2 µM
- GI50 [43]: 3.16 µM
- TGI [43]: 14.6 µM
- GI50 [44]: 2.56 µM
- TGI [44]: 9.97 µM
- GI50 [45]: 2.06 µM
- TGI [45]: 5.03 µM
- GI50 [46]: 1.92 µM
- TGI [46]: 4.05 µM
- GI50 [47]: 2.69 µM
- TGI [47]: 11.5 µM
- GI50 [48]: 9.53 µM
- TGI [48]: 24.7 µM
- GI50 [49]: 1.53 µM
- TGI [49]: 3.47 µM
- GI50 [50]: 3.07 µM
- TGI [50]: 12.2 µM
- GI50 [51]: 3.49 µM
- TGI [51]: 18.5 µM
- GI50 [52]: 2.92 µM
- TGI [52]: 11.5 µM
- GI50 [53]: 11.6 µM
- TGI [53]: 26.3 µM
- GI50 [54]: 3.89 µM
- TGI [54]: 15.2 µM
- GI50 [55]: 2.8 µM
- TGI [55]: 12.3 µM
